Test results reported in patent US6369069B1 (Aventis Pharma Deutschland GmbH, priority 1998, dated 2002).

What was measured:
[1] = test system: Na^+-dependent Cl^−/HCO3^− exchanger (NCBE); assay: Inhibition of the Na+-dependent Cl−/HCO3− exchanger (NCBE) in human endothelial cells (pHi recovery, BCECF fluorescence, FLIPR); assay type: cell-based; conditions: for Residual activity of the NCBE at 10 μM: 10 μM compound, human endothelial cells (ECV-304), related to 100% and 0% pHi recovery controls
Method in brief: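 Fluorescence rise (FLIPR, 2 min, 35 °C) tracked pHi recovery in acid-loaded, BCECF-loaded ECV-304 cells after adding Na+- and HCO3−-containing buffer with 50 μM HOE 642 and graded compound doses. Inhibition was calculated against full-recovery and bicarbonate-free no-recovery controls.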

| melting point | SMILES | Residual activity of the NCBE at 10 μM [1] | Residual activity % of the NCBE at 10 μM ([1]; compound at 10 μM, sub-table with R7 substituent) |
| --- | --- | --- | --- |
| 125 °C (dec.) | N#CNS(=O)(=O)c1ccccc1-c1ccc(CN(Cc2ccccc2)C(=O)Cc2ccccc2OC(F)(F)F)cc1 [Example 563, 4′-{[Benzyl-2-(2-trifluoromethoxyphenyl)acetylamino]methyl}biphenyl-2-sulfonylcyanamide] | 46% | – |
| 160 °C (dec.) | N#CNS(=O)(=O)c1ccccc1-c1ccc(CN(Cc2ccccc2)C(=O)c2ccccc2OC(F)(F)F)cc1 [Example 567, 4′-{[Benzyl-2-trifluoromethoxybenzoylamino]methyl}biphenyl-2-sulfonylcyanamide] | 69% | – |
| 90 °C (dec.) | N#CNS(=O)(=O)c1ccccc1-c1ccc(CN(Cc2ccccc2)C(=O)Cc2ccccc2C(F)(F)F)cc1 [Example 562, 4′-{[Benzyl-2-(2-trifluoromethylphenyl)acetylamino]methyl}biphenyl-2-sulfonylcyanamide] | 33% | – |
| 165 °C (dec.) | N#CNS(=O)(=O)c1ccccc1-c1ccc(CN(Cc2ccccc2)C(=O)c2ccccc2C(F)(F)F)cc1 [Example 566, 4′-{[Benzyl-2-trifluoromethylbenzoylamino]methyl}biphenyl-2-sulfonylcyanamide] | 72% | – |
| 122 °C (dec.) | N#CNS(=O)(=O)c1ccccc1-c1ccc(CN(Cc2ccccc2)C(=O)Cc2ccccc2SC(F)(F)F)cc1 [Example 564] | 23% | – |
| 173 °C (dec.) | Cc1ccccc1C(=O)N(Cc1ccccc1)Cc1ccc(-c2ccccc2S(=O)(=O)NC#N)cc1 [Example 565, 4′-{[Benzyl-2-methylbenzoylamino]methyl}biphenyl-2-sulfonylcyanamide] | 42% | – |
| 166 °C (dec.) | Cc1ccc(C(=O)N(Cc2ccccc2)Cc2ccc(-c3ccccc3S(=O)(=O)NC#N)cc2)s1 [Example 568, 4′-{[Benzyl-(5-methylthiophen-2-yl)carbonylamino]methyl}biphenyl-2-sulfonylcyanamide] | 70% | – |
| 108 °C (dec.) | Cc1ccccc1CC(=O)N(Cc1ccccc1)Cc1ccc(-c2ccccc2S(=O)(=O)NC#N)cc1 [Example 561, 4′-{[Benzyl-2-(2-methylphenyl)acetylamino]methyl}biphenyl-2-sulfonylcyanamide] | 16% | – |
| – | Cc1ccc(-c2ccc(CN(CCc3ccccc3)C(=O)Cc3ccsc3)cc2)c(S(=O)(=O)NC#N)c1 [Example 542] | – | 67.4% |
